Holding throughout (experiment): NCI anticancer screen, dose series, 48 h
Assay [1] relates to A498 renal.
For assay [2], the system named is A549 NSCLC.
Assay [3] deals with DU-145 prostate.
Assay [4] has as its system NCI-H23 lung.
Assay [5] relates to OVCAR-3 ovarian.
Assay [6] relates to PC-3 prostate.
Assay [7] deals with SF-539 CNS.
The test system of assay [8] is SK-MEL-5 melanoma.
Assay [9] relates to K-562 leukemia.
The test system of assay [10] is MOLT-4 leukemia.

Each structure is given as a SMILES string.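 Dose response: 5 concentrations. Exposure: 48 h. Format: 96-well plates. Endpoint: linear interpolation; highest concentration if not reached. GI50: concentration for 50% inhibition of growth. TGI is the concentration that stops growth completely.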

In the case of `CCc1cccc(CC)c1NC(=O)c1ccn2c1CCc1cnc(Nc3ccc(N4CCN(C)CC4)cc3OC)nc1-2`, the GI50 in assay [1] was 10.9 µM; in [2], 2.17 µM; in assay [3], 2.6 µM; in [4], 4.48 µM; in assay [5] it was 1.55 µM; in assay [6], 2.5 µM. The GI50 in assay [7] is 1.1 µM; in assay [8] it was 1.61 µM. The TGI in assay [1] came out at 23.5 µM; in assay [2], 42 µM; in assay [3], 15.8 µM; in assay [4], 27 µM; in assay [5] it was 4.22 µM; in [6], 16.2 µM. Further, the TGI in assay [7] was determined as 3.19 µM; in assay [8] it was 3.02 µM.
Consider `C(=C\c1nc2ccccc2s1)/c1ccc(N2CCOCC2)s1`, for which the GI50 in assay [1] was over 100 µM; in assay [2], 31.8 µM; in [3], 48.8 µM; in assay [9], over 100 µM; in [10] it was over 100 µM; in assay [4] it was 80.9 µM. The GI50 in assay [5] was 61.7 µM; in [6] it was 33.7 µM; in assay [7], 53.1 µM; in assay [8], 21.8 µM. The TGI in assay [1], in [2], in assay [3], in assay [9], in assay [10] and in assay [4] was over 100 µM in each case. Besides, the TGI in assay [5], in assay [6], in [7] and in assay [8] was over 100 µM in each case.
On to `CC(C)NCCCCCNc1cc(O)cc2cccnc12`, for which the TGI in [1], in [2], in assay [3], in [9], in [10] and in [4] was over 100 µM throughout. Also, the TGI in [5] is 9.37 µM; in assay [6] it was over 100 µM; in assay [7], over 100 µM; in assay [8] it was over 100 µM. Moreover, the GI50 in [2] is over 100 µM; in assay [3] it was over 100 µM; in [9], over 100 µM; in [10], over 77.8 µM; in [4], over 24.6 µM; in assay [5] it was 2.43 µM. The GI50 in [6] is over 100 µM; in [7], over 100 µM; in [8], 98.1 µM.
Regarding `CS(=O)(=O)c1ccc(-c2[nH]c3ccc(F)cc3c2/C=N/NC(N)=S)cc1`, the GI50 was 0.347 µM in assay [1]; 2.86 µM in assay [2]; 2.24 µM in assay [3]; 0.532 µM in [9]; 0.981 µM in assay [10]; 4.66 µM in assay [4]. The GI50 in assay [5] was 0.446 µM; in [6], 0.51 µM; in assay [7], 1.3 µM; in assay [8], 0.634 µM. Besides, the TGI in [1] was 5.18 µM; in assay [2], over 100 µM; in [3] it was over 100 µM; in assay [9] it was 41.2 µM; in assay [10] it was 24 µM; in assay [4] it was over 100 µM. Besides, the TGI was 12.1 µM in assay [5], 26.8 µM in assay [6], over 100 µM in assay [7] and 11.9 µM in assay [8].
Take `Nc1nc(Cl)nc2c1ncn2C1CCC(COP(=O)(O)OP(=O)(O)OP(=O)(O)O)O1` (configuration not stated): the TGI in assay [1] is over 100 µM; in assay [2], 78.8 µM; in assay [3] it was 69.8 µM; in assay [10], over 100 µM; in assay [4] it was 41.6 µM; in [5], over 100 µM. In addition, the values for the TGI in assay [6] and in [7] were 64.3 µM and over 100 µM, respectively.
Regarding `Cc1ccc(C)c(N2C(=O)C(=O)c3c(C)ccc(C)c32)c1`, the TGI is over 100 µM in [2]; over 100 µM in [3]; 48.5 µM in assay [9]; 48.8 µM in assay [10]; 70 µM in assay [4]; 34.1 µM in assay [5]. The figures for the TGI in [6], in [7] and in assay [8] were over 100 µM, 36.4 µM and 41.2 µM, respectively.
Consider `O=C(Nc1cccc(-n2cc(-c3ccncc3)c(-c3ccc(O)c(Cl)c3)n2)c1)c1ccc(N2CCOCC2)c(C(F)(F)F)c1`, for which the GI50 in [1] was over 50 µM; in [2] it was 2 µM; in [3], over 50 µM; in assay [9], 1.45 µM; in [10], 2.33 µM; in assay [4] it was 3.95 µM. The results for the GI50 in assay [6], in assay [7] and in assay [8] were 2.39 µM, 1.04 µM and 1.75 µM, respectively. Moreover, the TGI in assay [1], in assay [2], in [3], in [9], in assay [10] and in assay [4] was over 50 µM throughout. For the same molecule, the TGI in assay [6], in assay [7] and in [8] was over 50 µM each time.
In the case of `C=CCCC(O)c1ccc(CCCCCCCCCCC)o1` (configuration not stated), the GI50 was 18.6 µM in assay [2]; 16.4 µM in assay [3]; 38.6 µM in assay [9]; 29.9 µM in [10]; 19.3 µM in assay [4]; 16.1 µM in assay [5]. Also, the figures for the GI50 in [6], in assay [7] and in assay [8] were 18.8 µM, 18.9 µM and 17 µM, respectively. Besides, the TGI is 35.1 µM in assay [2]; 31.1 µM in assay [3]; over 100 µM in [9]; over 100 µM in assay [10]; 40.6 µM in assay [4]; 35.9 µM in [5]. The TGI is 36.6 µM in assay [6], 34.3 µM in assay [7] and 31.5 µM in [8].
For `O=C(OC(CNc1c(C(=O)c2ccccc2)c(=O)n(Cc2ccccc2)c(=O)n1Cc1ccccc1)CN1CCCCC1)c1ccccc1` (configuration not stated), the GI50 is 32.3 µM in assay [1]; 50.3 µM in assay [2]; 29.3 µM in assay [3]; 14.9 µM in assay [9]; 18.5 µM in [4]; 18 µM in [5]. For the same molecule, the GI50 in [6] was 13.1 µM; in assay [7] it was 21.7 µM; in assay [8] it was 18.2 µM. The TGI is 76.5 µM in [1]; over 100 µM in assay [2]; 80.9 µM in assay [3]; 31.3 µM in assay [9]; 39.2 µM in assay [4]; 35.2 µM in [5]. Further, the TGI in [6] was determined as 26.4 µM; in [7], 42.2 µM; in assay [8], 42.5 µM.
Consider `Cc1cc2c(=O)c3ccccc3oc2c(C#N)c1C`, for which the TGI in assay [1], in assay [2], in [3], in assay [9], in [10] and in assay [4] was over 100 µM each time. The TGI in assay [6] and in [8] was over 100 µM throughout.
In the case of `CC(=O)Nc1ccc(S(=O)(=O)c2ccc(NC(C)=O)cc2)cc1`, the GI50 in [1] is 81.4 µM; in assay [2] it was over 100 µM; in [3], over 100 µM; in assay [9] it was over 100 µM; in assay [10] it was over 100 µM; in [4], over 100 µM. The GI50 in assay [5] is 61.8 µM; in [6] it was over 100 µM; in assay [8], over 100 µM. For the same molecule, the TGI in assay [1], in assay [2], in assay [3], in assay [9], in assay [10] and in [4] was over 100 µM throughout. Moreover, the TGI in assay [5], in [6] and in assay [8] was over 100 µM in each case.
As for `Cc1csc(-c2ccc3c(c2)COC3(CCCN(C)C)c2ccc(F)cc2)c1` (configuration not stated), the GI50 was 2.02 µM in assay [2]; 1.91 µM in assay [3]; 2.29 µM in assay [9]; 2.55 µM in assay [10]; 1.83 µM in assay [4]; 1.81 µM in assay [5]. Further, the GI50 in assay [6] was 1.81 µM; in assay [7], 1.8 µM; in [8], 1.82 µM. In addition, the TGI in [2] is 4.24 µM; in [3], 3.56 µM; in assay [9], 5.18 µM; in assay [10], 6.69 µM; in assay [4] it was 3.44 µM; in [5], 3.37 µM. The TGI in assay [6] came out at 3.45 µM; in [7] it was 3.22 µM; in [8] it was 3.26 µM.
Take `CCCCC/C=C\C/C=C/CCCCCCCCNC(=O)Nc1ccc([N+](=O)[O-])cc1`: the GI50 is 38.2 µM in assay [2]; 40.1 µM in [3]; 5.68 µM in assay [10]; 5.19 µM in assay [4]; 6.74 µM in assay [5]; 4.45 µM in assay [6]. Moreover, the GI50 is 41.4 µM in assay [7] and 14.8 µM in assay [8]. Also, the TGI in [2] was over 100 µM; in [3], over 100 µM; in assay [10], 41.4 µM; in assay [4], 72 µM; in [5] it was over 100 µM; in assay [6], over 100 µM. Further, the TGI in assay [7] is over 100 µM; in assay [8] it was 32.4 µM.
`CN1CCN(CCCOc2ccc3nc(Nc4ccc(C(F)(F)F)c(Cl)c4)ccc3c2)CC1`: the GI50 in assay [1] is 0.932 µM; in assay [2], 1.92 µM; in assay [3] it was 1.58 µM; in assay [9], 0.595 µM; in assay [10] it was 1.63 µM; in assay [4], 1.47 µM. The GI50 in assay [5] was 1.64 µM; in assay [6], 1.68 µM; in assay [8], 1.7 µM. Also, the TGI in assay [1] is 2.54 µM; in [2], 3.48 µM; in assay [3], 3.09 µM; in [9], 2.07 µM; in assay [10], 3.91 µM; in assay [4], 3 µM. In addition, the TGI in [5] was determined as 3.46 µM; in assay [6] it was 3.56 µM; in assay [8], 3.18 µM.
Take `O=C(c1ccncc1)N1CCN(C2=NS(=O)(=O)c3ccccc3N2c2ccccc2)CC1`: the GI50 was 19.7 µM in assay [1]; 20.6 µM in [2]; 7.77 µM in assay [3]; 7.79 µM in assay [9]; 7.43 µM in assay [4]; 32.1 µM in assay [5]. For the same molecule, the GI50 was 22.2 µM in assay [6], 3.85 µM in [7] and 11.6 µM in assay [8]. Also, the TGI is 36.9 µM in assay [1]; over 100 µM in [2]; over 100 µM in [3]; over 100 µM in assay [9]; 41.6 µM in assay [4]; over 100 µM in assay [5]. In addition, the TGI in [6] was over 100 µM; in [7], 22.8 µM; in [8] it was 24.1 µM.
Take `N=C(N)c1ccc(-c2ccc(-c3ccc(Cl)c(Cl)c3)o2)nc1`: the GI50 in [1] was 9.98 µM; in [3] it was 1.89 µM; in [4], 2.02 µM; in [6], 1.72 µM; in [7] it was 1.63 µM; in [8], 1.74 µM. In addition, the TGI turned out to be 28.5 µM in assay [1]; 3.62 µM in [3]; 4.59 µM in [4]; 3.29 µM in assay [6]; 3.04 µM in assay [7]; 3.15 µM in assay [8].
On to `CNc1ccc(C(=O)CC(O)CCC(C)C2OC(=O)CC(O)CC(=O)CC(O)CC(O)CC(O)CC(O)CC3(O)CC(O)C(C(=O)NCCc4ccccn4)C(CC(OC4OC(C)C(O)C(N)C4O)/C=C/C=C/C=C/C=C\C=C/C=C/C=C/C2C)O3)cc1` (configuration not stated), for which the GI50 was 0.136 µM in assay [1]; 0.183 µM in assay [3]; 2.43 µM in assay [9]; 0.207 µM in assay [10]; 0.118 µM in assay [4]; 0.643 µM in assay [5]. Besides, the GI50 is 0.336 µM in [6], 2.73 µM in [7] and 0.157 µM in assay [8]. The TGI is 0.464 µM in [1]; 0.672 µM in [3]; over 20.5 µM in [9]; over 50 µM in [10]; 0.271 µM in [4]; 2.16 µM in assay [5]. The results for the TGI in assay [6], in assay [7] and in assay [8] were over 11.6 µM, over 50 µM and 0.447 µM, respectively.

Source of the values: PubChem BioAssay (NCI).
